Test results taken from US11453669B2, “Polycyclic pyridone derivative” (Shionogi & Co., Ltd., priority 2018, dated 2022).

Assays:
HIV = experiment: Anti-HIV activity (MT-4 cells, MTT); assay type: cell-based; conditions: Human immunodeficiency virus 1, MT4, 96 h, read-out: EC50_nM (50% HIV inhibitory concentration)
Procedure: Serial dilutions of a test sample were prepared in a 96-well microplate (50 μL/well). 2.5×10^5 cells/mL of an MT-4 cell suspension was dispensed at 100 μL/well to the plate containing the test sample. Then, an HIV virus solution was dispensed at 50 μL/well. The plate was mixed with a plate mixer and cultured for 4 days in a CO2 incubator. An MTT (3-(4,5-dimethylthiazol-2-yl)-2,5-diphenyltetrazolium bromide) solution was dispensed at 30 μL/well. The plate was reacted for 1 hour in a CO2 incubator. 150 μL of the supernatant was removed from each well so as not to take up the cells. 150 μL of a cell lysis solution was added to each well and well mixed with a plate mixer until the cells were completely lysed. The absorbance of the mixed plate was measured at two wavelengths of 560 nm and 690 nm using a microplate reader.

[1] = test system: HIV mutant strain 1 (E138K/G140S/Q148H/N155H); assay type: cell-based; conditions: FC=EC50 of the mutant strain/EC50 of the wild strain, HeLa-CD4 cells
Procedure: (§1) Serial dilutions of a test sample were prepared in a 96-well microplate (50 μL/well). 2.5×10^5 cells/mL of a HeLa-CD4 cell suspension was dispensed at 100 μL/well to the plate containing the test sample. Then, an HIV virus solution (wild strain and mutant strain) was dispensed at 50 μL/well. The plate was mixed with a plate mixer and cultured for 3 days in a CO2 incubator. The culture supernatant in each well was removed by suction. A cell lysis buffer in a reporter assay kit was dispensed at 100 μL/well, and the plate was frozen in a freezer (−80° C.). The plate frozen in a freezer was thawed at room temperature, then mixed with a plate mixer, and centrifuged at 1,200 rpm for 5 minutes. The supernatant of each well was dispensed at 20 μL/well to a 96-well microplate (BLACK). A chemiluminescent in the reporter assay kit reagent was dispensed at 100 μL/well and reacted at room temperature for approximately 1 hour. Then, luminescence intensity was measured using MicroBeta TRILUX.

[2] = test system: HIV mutant strain 2 (E92Q/E138T/G140S/Q148H); assay type: cell-based; conditions: FC=EC50 of the mutant strain/EC50 of the wild strain, HeLa-CD4 cells
Procedure: as §1

[3] = assay type: in vitro ADME; conditions: human, 30 min, 0.5 μmol/L, pH 7.4
Procedure: Using commercially available pooled human liver microsomes, a compound of the present invention was reacted for a constant time, and a remaining rate was calculated by comparing a reacted sample and an unreacted sample, thereby, a degree at which the compound of the present invention was metabolized in liver was assessed.
A reaction was performed (oxidative reaction) at 37° C. for 0 minute or 30 minutes in the presence of 1 mmol/L NADPH in 0.2 mL of a buffer solution (50 mmol/L Tris-HCl pH 7.4, 150 mmol/L potassium chloride, 10 mmol/L magnesium chloride) containing 0.5 mg protein/mL of human liver microsomes. After the reaction, 50 μL of the reaction solution was added to 100 μL of a solution of methanol/acetonitrile=1/1 (v/v), and the mixture was mixed and centrifuged at 3000 rpm for 15 minutes. The compound of the present invention in the centrifugation supernatant was quantified by LC/MS/MS or solid-phase extraction (SPE)/MS. The amount of the compound of the present invention remaining after the reaction was calculated with the amount of the compound at 0 minutes of the reaction defined as 100%.

[4] = target: T1, Voltage gated sodium channel (Nav1.5 channel) encoded by SCN5A gene (Homo sapiens, UniProt Q14524); experiment: Nav test (QPatch whole cell patch clamp); assay type: cell-based; conditions: HEK cells expressing Nav1.5, applied 5 minutes or more, room temperature
T1 construct: expressed in transfected cells; host or cells: HEK cells
Procedure: A cell was retained at a membrane potential of −100 mV by whole cell patch clamp method using a fully automated patch clamp system (QPatch; Sophion Bioscience A/S), and INa induced by depolarization pulse stimulation at −10 mV for 20 ms was recorded. […] The extracellular solution in which the medium and the compound of the present invention had been dissolved at each objective concentration was applied to the cell for 5 minutes or more under conditions of room temperature.

T1 sequence (Q14524 whole entry): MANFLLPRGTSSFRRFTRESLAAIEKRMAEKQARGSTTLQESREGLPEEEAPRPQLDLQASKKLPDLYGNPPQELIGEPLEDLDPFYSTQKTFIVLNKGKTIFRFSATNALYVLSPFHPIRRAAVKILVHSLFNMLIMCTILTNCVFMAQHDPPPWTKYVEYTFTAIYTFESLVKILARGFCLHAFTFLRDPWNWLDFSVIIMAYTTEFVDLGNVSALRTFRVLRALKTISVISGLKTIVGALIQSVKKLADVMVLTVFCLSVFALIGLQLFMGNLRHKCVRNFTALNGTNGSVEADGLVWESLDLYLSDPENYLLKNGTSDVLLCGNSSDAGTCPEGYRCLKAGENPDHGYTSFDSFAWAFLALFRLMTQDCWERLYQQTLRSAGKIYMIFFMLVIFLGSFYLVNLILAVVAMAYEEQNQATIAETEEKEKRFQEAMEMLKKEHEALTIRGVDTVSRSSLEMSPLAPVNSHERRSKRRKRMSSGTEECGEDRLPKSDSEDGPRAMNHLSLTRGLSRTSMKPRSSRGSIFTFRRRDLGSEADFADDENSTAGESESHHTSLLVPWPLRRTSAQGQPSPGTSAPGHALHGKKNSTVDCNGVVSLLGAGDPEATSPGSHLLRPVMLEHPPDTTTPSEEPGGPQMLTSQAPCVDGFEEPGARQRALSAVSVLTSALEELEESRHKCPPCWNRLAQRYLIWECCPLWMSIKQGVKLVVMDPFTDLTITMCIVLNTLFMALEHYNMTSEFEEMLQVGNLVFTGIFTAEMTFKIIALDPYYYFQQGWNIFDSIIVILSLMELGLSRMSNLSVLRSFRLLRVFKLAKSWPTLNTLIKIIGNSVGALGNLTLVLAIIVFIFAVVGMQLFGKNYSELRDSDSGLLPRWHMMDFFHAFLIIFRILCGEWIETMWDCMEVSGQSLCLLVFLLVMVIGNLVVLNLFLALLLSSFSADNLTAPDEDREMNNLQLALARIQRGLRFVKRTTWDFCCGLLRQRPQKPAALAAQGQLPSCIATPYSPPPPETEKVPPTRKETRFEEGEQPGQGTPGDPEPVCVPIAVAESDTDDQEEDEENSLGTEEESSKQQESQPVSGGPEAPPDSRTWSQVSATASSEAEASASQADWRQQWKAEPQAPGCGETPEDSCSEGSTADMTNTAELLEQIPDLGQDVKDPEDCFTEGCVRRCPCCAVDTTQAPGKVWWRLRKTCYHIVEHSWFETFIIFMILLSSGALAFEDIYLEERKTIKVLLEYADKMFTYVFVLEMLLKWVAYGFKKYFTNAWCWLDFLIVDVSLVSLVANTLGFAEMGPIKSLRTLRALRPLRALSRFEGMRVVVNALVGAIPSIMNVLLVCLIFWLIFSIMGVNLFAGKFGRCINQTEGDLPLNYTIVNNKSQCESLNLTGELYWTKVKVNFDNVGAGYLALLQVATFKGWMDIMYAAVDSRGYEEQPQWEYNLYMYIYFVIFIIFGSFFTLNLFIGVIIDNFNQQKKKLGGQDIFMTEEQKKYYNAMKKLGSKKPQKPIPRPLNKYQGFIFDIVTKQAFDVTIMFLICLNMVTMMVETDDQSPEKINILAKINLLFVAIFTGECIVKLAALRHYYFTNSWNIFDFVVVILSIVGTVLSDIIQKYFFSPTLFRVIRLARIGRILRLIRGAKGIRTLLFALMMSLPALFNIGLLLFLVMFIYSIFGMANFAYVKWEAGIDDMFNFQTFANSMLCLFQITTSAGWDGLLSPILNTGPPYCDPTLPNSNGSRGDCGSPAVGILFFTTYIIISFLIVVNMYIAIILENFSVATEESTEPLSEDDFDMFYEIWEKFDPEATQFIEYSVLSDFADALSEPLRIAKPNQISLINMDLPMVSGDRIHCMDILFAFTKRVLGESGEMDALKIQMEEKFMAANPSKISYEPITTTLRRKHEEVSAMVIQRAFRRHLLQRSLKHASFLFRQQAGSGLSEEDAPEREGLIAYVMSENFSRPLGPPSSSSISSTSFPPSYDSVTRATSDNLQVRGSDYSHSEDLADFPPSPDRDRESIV

SMILES | EC50 (HIV) [nM] | FC (fold change) for mutant strain 1 [1] | FC (fold change) for mutant strain 2 [2] | residual rate [3] | ratio of maximum peak current (INa) with compound relative to medium [4] [%]
CCN1C(=O)c2c(O)c(=O)c(-c3nnc(Cc4cc(F)c(F)cc4F)s3)cn2N2CCCC[C@@H]12 [Compound I-012] | 4.8 | 23 | 46 | 72.2 | 97.1
CN1C(=O)c2c(O)c(=O)c(-c3nnc(Cc4ccc(F)cc4F)s3)cn2N2CCCC[C@@H]12 [II-003] | 0.62 | 8.8 | 12 | 109 | 96.7
CN1C(=O)c2c(O)c(=O)c(-c3nnc(Cc4ccc(F)cc4F)s3)cn2N2CCOC[C@@H]12 [II-010] | 1.3 | 25 | 22 | 106 | –
CCN1C(=O)c2c(O)c(=O)c(-c3nnc(Cc4c(F)cc(F)cc4F)s3)cn2N2CCOC[C@@H]12 [II-018] | 0.52 | 15 | 20 | 95.3 | 109
CCN1C(=O)c2c(O)c(=O)c(-c3nnc(Cc4c(F)cc(F)cc4F)s3)cn2N2C[C@@H](C)C[C@@H]12 [II-027] | 1.9 | 4.7 | 7 | 90.5 | –
C[C@@H]1CC[C@H]2N(C)C(=O)c3c(O)c(=O)c(-c4nnc(Cc5ccc(F)cc5F)s4)cn3N12 [II-029] | 0.66 | 7.2 | 6.5 | 85.3 | –
CCN1C(=O)c2c(O)c(=O)c(-c3nnc(Cc4ccc(F)cc4F)s3)cn2N2CC[C@@H](C)C[C@@H]12 [II-033] | – | – | – | – | 90.7
CCN1C(=O)c2c(O)c(=O)c(-c3nnc(Cc4ccc(F)cc4)s3)cn2N2[C@H](COC)CC[C@@H]12 [II-038] | 0.13 | 20 | 31 | 92.4 | 86.2
C[C@@H]1CCC[C@H]2N(C)C(=O)c3c(O)c(=O)c(-c4nnc(Cc5ccc(F)cc5F)s4)cn3N12 [II-043] | 3.5 | 6.8 | 11 | 103 | –
CCN1C(=O)c2c(O)c(=O)c(-c3nnc(Cc4c(F)cc(F)cc4F)s3)cn2N2[C@H](C)CCC[C@@H]12 [II-044] | 1.4 | 11 | 26 | 88.5 | –
CCN1C(=O)c2c(O)c(=O)c(-c3nnc(Cc4c(F)cc(F)cc4F)s3)cn2N2C[C@@H]3CC[C@@H](O3)[C@@H]12 [II-046] | 0.6 | 17 | 20 | 97.2 | –
CCN1C(=O)c2c(O)c(=O)c(-c3nnc(Cc4ccc(F)cc4)s3)cn2N2C[C@@H]3CC[C@@H](O3)[C@@H]12 [II-050] | 0.66 | 20 | 29 | 103 | –
CCN1C(=O)c2c(O)c(=O)c(-c3nnc(Cc4c(F)cc(F)cc4F)s3)cn2N2C[C@@H]3CC[C@@H](C3)[C@@H]12 [II-052] | 0.66 | 2.3 | 3.5 | 83.4 | –
CC(C)N1C(=O)c2c(O)c(=O)c(-c3nnc(Cc4c(F)cc(F)cc4F)s3)cn2N2C[C@@H]3CC[C@@H](O3)[C@@H]12 [II-054] | 1 | 3.5 | 8.2 | 98.8 | –
CN1C(=O)c2c(O)c(=O)c(-c3nnc(Cc4ccc(F)cc4F)s3)cn2N2C[C@@H]3CC[C@@H](C3)[C@@H]12 [II-055] | 0.14 | 15 | 11 | 93.9 | –
CCN1C(=O)c2c(O)c(=O)c(-c3nnc(Cc4c(F)cc(F)cc4F)s3)cn2N2CC[C@@H](C)C[C@@H]12 [II-057] | 1.7 | 3 | 3.6 | 82.5 | –
C[C@@H]1CCN2[C@@H](C1)N(C)C(=O)c1c(O)c(=O)c(-c3nnc(Cc4c(F)cc(F)cc4F)s3)cn12 [II-058] | 0.69 | 6.1 | 6.1 | 94.2 | –
CCN1C(=O)c2c(O)c(=O)c(-c3nnc(Cc4c(F)cc(F)cc4F)s3)cn2N2CC[C@H](C)C[C@@H]12 [II-061] | 1.8 | 5.1 | 7.3 | 91.5 | –
CCN1C(=O)c2c(O)c(=O)c(-c3nnc(Cc4cc(F)c(F)cc4F)s3)cn2N2C[C@@H]3CC[C@@H](C3)[C@@H]12 [II-062] | 5.2 | 8.3 | 6.6 | 71.7 | –
CN1C(=O)c2c(O)c(=O)c(-c3nnc(Cc4c(F)cc(F)cc4F)s3)cn2N2C[C@@H]3CC[C@@H](C3)[C@@H]12 [II-063] | 0.6 | 14 | 12 | 96.5 | –
CCN1C(=O)c2c(O)c(=O)c(-c3nnc(Cc4ccc(F)cc4F)s3)cn2N2C[C@@H](C)CC[C@@H]12 [II-067] | 0.3 | 5.2 | 5.1 | 93 | –
CCN1C(=O)c2c(O)c(=O)c(-c3nnc(Cc4c(F)cc(F)cc4F)s3)cn2N2C[C@@H](C)CC[C@@H]12 [II-068] | 1.2 | 3.5 | 4.6 | 91.3 | –
CN1C(=O)c2c(O)c(=O)c(-c3nnc(Cc4cccc(Cl)c4F)s3)cn2N2CCOC[C@@H]12 [II-069] | 0.24 | 30 | 25 | 102 | –
